# Test results reported in patent US20230058171A1, “NEW ORAL PHARMACEUTICAL COMPOSITION FOR CANCER THERAPY” (BOEHRINGER INGELHEIM INTERNATIONAL GMBH, priority 2021, published 2023).
# Key:
# [1] = tested on: tumors; assay: Trial 1403-0002 combination with ezabenlimab (and anti-LAG3-1): tumor response; type: in vivo, human
# [2] = tested on: advanced or metastatic solid tumors; assay: Trial 1403-0001 efficacy: tumor response according to RECIST1.1; type: in vivo, human; conditions: for Best overall response / days of exposure to the MDM2i of formula I: MDM2 AMPL
# Description: Trial 1403-0001 was a first in human Phase Ia/Ib, open label, multicenter, dose-escalation study of the MDM2-antagonist of formula I in patients with advanced or metastatic solid tumors. The Phase Ia dose escalation part aimed to define the Maximum Tolerated Dose (MTD) and the Recommended Dose for Expansion (RDE) for the MDM2-antagonist of formula I based on safety and tolerability, pharmacokinetics, pharmacodynamics, and preliminary efficacy. The RDE will be further explored in the Phase Ib expansion part of the trial.
# 15 patients in Arm B experienced a stable disease in arm B (representing 60% of all treated patients).
# A treatment with a drug candidate (here the MDM2-antagonist of formula I) leading to a “PARTIAL RESPONSE (PR)” is defined by a ≥30% decrease in the sum of diameters of target lesions, taking as reference the sum of diameters of the target lesions prior to treatment (=baseline sum of diameters) according to the RECIST1.1 criteria (Eisenhauer et al, Eur. J. Canc. (2009), Vol. 45, pp. 228-247).
# A treatment with a drug candidate (here the MDM2-antagonist of formula I) leading to a “PROGRESSIVE DISEASE (PD)” is defined by a ≥20% increase in the sum of diameters of target lesions, taking as reference the smallest sum of diameters of target lesions on study (including the baseline sum of diameters if that is the smallest sum of diameters of target lesions on study) according to the RECIST1.1 criteria (Eisenhauer et al, Eur. J. Canc. (2009), Vol. 45, pp. 228-247).
# A treatment with a drug candidate (here the MDM2-antagonist of formula I) leading to a “STABLE DISEASE (SD)” is defined by neither sufficient shrinkage to qualify for PR nor sufficient increase to qualify for PD, taking as reference the smallest sum of diameters of the target lesions on study (including the baseline sum of diameters if that is the smallest sum of diameters on study) according to the RECIST1.1 criteria (Eisenhauer et al, Eur. J. Canc. (2009), Vol. 45, pp. 228-247).
# [3] = triple combination (11 treated)
# [4] = Arm A patient 1392001001, WD LPS, 20 mg D1q3w
# [5] = Arm A patient 1392001006, DDLPS, 50 mg D1q3w
# [6] = Arm A patient 1840003004, DDLPS, 60 mg D1q3w, no prior therapy
# [7] = Arm A patient 1840003006, DDLPS, 50 mg D1q3w
# [8] = Arm A patient 1840003008, DDLPS, 60 mg D1q3w
# [9] = Arm B patient 1392001005, DDLPS, 15/15 mg D1D8q4w
# [10] = Arm B patient 1392001007, DDLPS, 30/30 mg D1D8q4w
# [11] = Arm B patient 1392001009, WD LPS, 60/60 mg D1D8q4w
# [12] = Arm B patient 1840002005, DDLPS, 20/20 mg D1D8q4w, no prior therapy
# [13] = Arm B patient 1840003009, DDLPS, 45/45 mg D1D8q4w
# [14] = Arm B patient 1840003010, DDLPS, 45/45 mg D1D8q4w
# [15] = Arm B patient 1840003011, WD LPS, 30/30 mg D1D8q4w
# [16] = Arm B patient 1840003014, WD LPS, 45/45 mg D1D8q4w
compound,measurement,setting,value
"Cc1c(C(=O)O)ccc2c3n(nc12)[C@@H]1[C@H](C3)N(CC2CC2)[C@@]2(C(=O)Nc3cc(Cl)ccc32)[C@H]1c1cccc(Cl)c1F [MDM2-antagonist of formula I, (2′S,3′S,3a'S,10a'S)-6-chloro-3′-(3-chloro-2-fluorophenyl)-1′-(cyclopropylmethyl)-6′-methyl-2-oxo-1,2,3′,3a′,10′,10a′-hexahydro-1′H-spiro[indole-3,2′-pyrrolo[2′,3′:4,5]pyrrolo[1,2-b]indazole]-7′-carboxylic acid]",patients with confirmed partial response (PR),"[1]; double combination with 240 mg ezabenlimab D1 q3w, nine evaluable patients",four
same,patients with confirmed partial response (PR),"[1]; double combination, 30 mg + 240 mg ezabenlimab D1 q3w",one
same,patients with unconfirmed PR,"[1]; double combination, 30 mg + 240 mg ezabenlimab D1 q3w, adenocarcinoma",one
same,patients with confirmed partial response (PR),"[1]; double combination, 45 mg + 240 mg ezabenlimab D1 q3w",three
same,patients with stable disease,"[1]; double combination, nine evaluable patients",Four
same,"Confirmed partial response, % of patients",[1]; [3],(9.1) %
same,"Confirmed partial response, number of patients",[1]; [3],1
same,"Disease control, % of patients",[1]; [3],(72.5) %
same,"Disease control, number of patients",[1]; [3],8
same,"Progressive disease, % of patients",[1]; [3],(18.2) %
same,"Progressive disease, number of patients",[1]; [3],2
same,"Stable disease, number of patients",[1]; [3],7
same,"Unconfirmed partial response, % of patients",[1]; [3],(9.1) %
same,"Unconfirmed partial response, number of patients",[1]; [3],1
same,"Partial Responses (PRs), number","[1]; triple combination, MDM2-amplified liposarcoma and MDM2-amplified urothelial carcinoma patient",2
same,Best overall response,[2]; [4],"PR (PR, tumor shrinkage of at least −30%)"
same,days of exposure to the MDM2i of formula I,[2]; [4],778 days
same,Best overall response,[2]; [5],"SD (SD, tumor growth modification between +20% and −30%)"
same,days of exposure to the MDM2i of formula I,[2]; [5],107 days
same,Best overall response,"[2]; Arm A patient 1392001011, WDLPS, 80 mg D1q3w","PR (PR, tumor shrinkage of at least −30%)"
same,days of exposure to the MDM2i of formula I,"[2]; Arm A patient 1392001011, WDLPS, 80 mg D1q3w, ongoing",228 days
same,Best overall response,"[2]; Arm A patient 1840002004, DDLPS, 45 mg D1q3w","SD (SD, tumor growth modification between +20% and −30%)"
same,days of exposure to the MDM2i of formula I,"[2]; Arm A patient 1840002004, DDLPS, 45 mg D1q3w, third line",353 days
same,Best overall response,[2]; [6],"SD (SD, tumor growth modification between +20% and −30%)"
same,days of exposure to the MDM2i of formula I,[2]; [6],342 days
same,Best overall response,[2]; [7],"SD (SD, tumor growth modification between +20% and −30%)"
same,days of exposure to the MDM2i of formula I,[2]; [7],85 days
same,Best overall response,[2]; [8],"SD (SD, tumor growth modification between +20% and −30%)"
same,days of exposure to the MDM2i of formula I,[2]; [8],57 days
same,Best overall response,"[2]; Arm A patient 1840003013, WDLPS, 80 mg D1q3w","SD (SD, tumor growth modification between +20% and −30%)"
same,days of exposure to the MDM2i of formula I,"[2]; Arm A patient 1840003013, WDLPS, 80 mg D1q3w, ongoing",214 days
same,Best overall response,"[2]; Arm A patient 1846002602, DDLPS, 45 mg D1q3w","SD (SD, tumor growth modification between +20% and −30%)"
same,days of exposure to the MDM2i of formula I,"[2]; Arm A patient 1846002602, DDLPS, 45 mg D1q3w, second line",709 days
same,tumor shrinkage,"[2]; Arm A patient with p53-wildtype MDM2-amplified biliary adenocarcinoma, partial response",54%
same,Best overall response,[2]; [9],"SD (SD, tumor growth modification between +20% and −30%)"
same,days of exposure to the MDM2i of formula I,[2]; [9],491 days
same,Best overall response,[2]; [10],"SD (SD, tumor growth modification between +20% and −30%)"
same,days of exposure to the MDM2i of formula I,[2]; [10],218 days
same,Best overall response,[2]; [11],"SD (SD, tumor growth modification between +20% and −30%)"
same,days of exposure to the MDM2i of formula I,[2]; [11],105 days
same,Best overall response,[2]; [12],"SD (SD, tumor growth modification between +20% and −30%)"
same,days of exposure to the MDM2i of formula I,[2]; [12],542 days
same,Best overall response,[2]; [13],"SD (SD, tumor growth modification between +20% and −30%)"
same,days of exposure to the MDM2i of formula I,[2]; [13],274 days
same,Best overall response,[2]; [14],"SD (SD, tumor growth modification between +20% and −30%)"
same,days of exposure to the MDM2i of formula I,[2]; [14],64 days
same,Best overall response,[2]; [15],"SD (SD, tumor growth modification between +20% and −30%)"
same,days of exposure to the MDM2i of formula I,[2]; [15],100 days
same,Best overall response,"[2]; Arm B patient 1840003012, WD LPS, 60/60 mg D1D8q4w","PR (PR, tumor shrinkage of at least −30%)"
same,days of exposure to the MDM2i of formula I,"[2]; Arm B patient 1840003012, WD LPS, 60/60 mg D1D8q4w, ongoing",221 days
same,Best overall response,[2]; [16],"SD (SD, tumor growth modification between +20% and −30%)"
same,days of exposure to the MDM2i of formula I,[2]; [16],127 days
same,tumor shrinkage,"[2]; Arm B patient with p53 wildtype MDM2-amplified pancreatic adenocarcinoma (PAC), partial response",41%
same,tumor shrinkage,"[2]; DDLPS patient, 45 mg, second line therapy, for 709 days",approx. 5%
same,tumor shrinkage,"[2]; DDLPS patient, 45 mg, third line therapy, for 353 days",approx. 10%
same,"Disease control, % of patients",[2]; arm A (29 treated),(75.9) %
same,"Disease control, number of patients",[2]; arm A (29 treated),22
same,"Partial response, number of patients",[2]; arm A (29 treated),3
same,"Progressive disease, % of patients",[2]; arm A (29 treated),(20.7) %
same,"Progressive disease, number of patients",[2]; arm A (29 treated),6
same,"Stable disease, number of patients",[2]; arm A (29 treated),19
same,"Disease control, % of patients",[2]; arm B (25 treated),(68) %
same,"Disease control, number of patients",[2]; arm B (25 treated),17
same,"Partial response, number of patients",[2]; arm B (25 treated),2
same,"Progressive disease, % of patients",[2]; arm B (25 treated),(20) %
same,"Progressive disease, number of patients",[2]; arm B (25 treated),5
same,"Stable disease, number of patients",[2]; arm B (25 treated),15
same,"Disease control, % of patients",[2]; both arms (54 treated),(72) %
same,"Disease control, number of patients",[2]; both arms (54 treated),39
same,"Partial response, number of patients",[2]; both arms (54 treated),5
same,"Progressive disease, % of patients",[2]; both arms (54 treated),(20.3) %
same,"Progressive disease, number of patients",[2]; both arms (54 treated),11
same,"Stable disease, number of patients",[2]; both arms (54 treated),34
same,approximate median PFS,[2]; eleven dedifferentiated liposarcoma (DDLPS) patients,around 10.8 months
same,patients with partial response,[2]; of seven well differentiated liposarcoma (WDLPS) patients,three
same,duration of response,[2]; one patient in Arm A,more than 2 years
